{
  "source": "patent US20230355598A1",
  "about": "“PYRROLIDINE COMPOUNDS TO TREAT XERODERMA PIGMENTOSUM” (Clinuvel (UK) Ltd., priority 2020, published 2023)",
  "test_system": "Melanocytes",
  "assay": "Measurement of UV-induced apoptosis by Annexin Va staining",
  "format": "cell-based",
  "details": "melanocytes in medium lacking BPE; treated 4 days prior to and 24 h after UV dose 105 mJ/cm^2; vs control",
  "experimental": "Melanocytes were treated with the different concentrations of the pyrrolidine compound for 4 days prior to, and 24 h after exposure to a UV dose (105 mJ/cm^2), then stained for Annexin Va staining. The data were collected as percent increase above control, with triplicate dishes included in each group. Effect of the pyrrolidine compound vs control on the UV-induced apoptosis were determined in melanocyte strains. Floating as well as attached cells were harvested and stained for Annexin V, and analyzed by flow cytometry.",
  "data": [
    {"smiles": "COC[C@H]1CN(C(=O)[C@]2(F)CN(C3CCCC3)C[C@H]2c2ccc(OC)cc2)C[C@@H]1c1ccc(C(F)(F)F)cc1N1CCC(C(=O)O)CC1", "note": "[Dersimelagon, 1-{2-[(3S,4R)-1-{[(3R,4R)-1-cyclopentyl-3-fluoro-4-(4-methoxyphenyl)pyrrolidin-3-yl]carbonyl}-4-(methoxymethyl)pyrrolidin-3-yl]-5-(trifluoromethyl)phenyl}piperidine-4-carboxylic acid]", "values": [
      {"measurement": "Effect on UV-induced apoptosis (Annexin V staining, flow cytometry)", "result": "beneficial anti-apoptotic effects"}
    ]}
  ]
}
